Several values for one entry are separate records, joined by “and”; a condition that tells them apart may be missing. Equal values may be shown once.
Columns and labels:
Format in all cases: cell-based, human
P53 = test: ELISA, P53 concentration
Description: (§1) The concentrations of matrix metalloproteinase-2 (MMP2), matrix metalloproteinase-9 (MMP9), Bcl2, BAX, P53, Malondialdehyde (MDA), Glutathione (GSH), caspase 8, caspase 9 and IL-6 were measured quantitatively in 5c treated MCF7 and HEP2 cells using ELISA (Enzyme-Linked Immunosorbent Assay) (Table 4). Gelatinases are a collective word for MMP-2 and MMP-9, where MMP-2 is gelatinase-A and MMP-9 is gelatinase-B. Solid tumor invasion, metastasis, and angiogenesis have long been linked to gelatinases (Das et al. [2021]). […] Bcl2 is a crucial protein that targets apoptosis inhibition. It is regarded as a predictive biomarker or therapeutic target in the diagnosis of cancer due to its broad expression in a variety of cancers (Porter et al. [2009]). […] The pro-apoptotic protein BAX permeabilizes the mitochondrial outer membrane by changing from a cytosolic monomer to a hazardous oligomer triggering the apoptosis process (Fulda and Debatin [2006]). […] P53 transcription factor performs an essential tumor suppressor role by coordinating a wide range of physiological responses, including DNA repair, cell cycle arrest, cellular senescence, cell death, cell differentiation, and metabolism (Liebl and Hofmann [2021]). It was activated in MCF7 and HEP2-treated cells with values (4.28 and 3.109 ng/mL), respectively, compared to their controls (3.44 and 2.06 ng/mL). […]

MMP2 = test: ELISA, MMP2 concentration
Description: as §1

MCF7 cells = test: Flow cytometric analysis of cell cycle, MCF7; settings: MCF7, IC50 of 5c, 48 h
Description: In DMEM-supplemented media, cells were plated in 12-well plates at a cell density of 6–8×10^5 per well. After twenty-four hours, cells were cultured for an additional 48 hours with the IC50 of the target compound. The untreated cells were used as a negative control. After 48 h of incubation, the treated cells were centrifuged at 1,200 rpm and 4 °C for 10 min. After discarding the supernatant, the wells were then given a single phosphate-buffered saline (PBS) wash and then centrifuged for 10 min at 1,200 rpm. Trypsin/EDTA was used to collect the cells, and after one PBS wash, they were resuspended in 0.5 mL of 0.05% Triton X-100 for 10 min at room temperature. Each cell suspension was stained by being given 1 mL of 50 µg/mL propidium iodide (PI) to be left at room temperature in the darkness for 20 minutes. The analysis of the cell cycle was done by a flow cytometer (Becton Dickenson (BD) FACSCalibur, USA) (Michalkova et al. [2022]).

Malondialdehyde (MDA) = test: ELISA, MDA concentration
Description: as §1

## COc1ccc(NC(=O)COc2ccc(C=CC(=O)c3cccs3)cc2)cc1 [Compound 5c, N-(4-Methoxyphenyl)-2-(4-(3-oxo-3-(thiophen-2-yl)prop-1-en-1-yl)phenoxy)acetamide]
P53; 5c treated HEP2 cells, untreated 2.06±0.425
  P53 concentration: 3.109 ng/mL and 3.109 ± 0.089 ng/mL
P53; 5c treated MCF7 cells, untreated 3.44±0.25
  P53 concentration: 4.28 ng/mL and 4.28 ± 0.188 ng/mL
MMP2; 5c treated HEP2 cells, untreated 461.58±45.11
  MMP2 concentration: 142.5 pg/mL and 142.5 ± 15.03 pg/mL
MMP2; 5c treated MCF7 cells, untreated 466.90±22.55
  MMP2 concentration: 185.125 pg/mL and 185.125 ± 30.07 pg/mL
MCF7 cells; untreated control 8.95±0.38
  Percentage of DNA in G2-M phase: 2.8% and 2.855±0.07778%
MCF7 cells; untreated control 45.405±1.97283
  Percentage of DNA in S phase: 42.84% and 42.845±0.4596%
MCF7 cells; untreated control 45.585±1.548
  Percentage of DNA in G0-G1 phase: 54.3% and 54.3±0.5374%
Malondialdehyde (MDA); 5c treated HEP2 cells, untreated 17.44±0.309
  MDA concentration: 11.988 nM and 11.988 ± 0.178 nM
Malondialdehyde (MDA); 5c treated MCF7 cells, untreated 15.79±0.178
  MDA concentration: 8.79 nM and 8.79 ± 0.309 nM

Reference: paper PMC11582173, “Synthesis, cytotoxicity, anti-inflammatory, anti-metastatic and anti-oxidant activities of novel chalcones incorporating 2-phenoxy-N-arylacetamide and thiophene moieties: induction of apoptosis in MCF7 and HEP2 cells” (Naunyn-Schmiedeberg's Archives of Pharmacology, 2024)
